Results: patent US20080274121A1, “Inhibition of Angiogenesis by Mithramycin” (priority 2007, published 2008)

Tests used:
PANC-1 cells [1] = experiment: PANC-1 subcutaneous xenograft, tumor volume and body weight; format: in vivo, nude mice; details: BVZ 25 μg, MIT 0.10 mg/kg, or B+M
Method: FIG. 11. Synergistic antitumor effects of treatment with BVZ and MIT in xenograft models of human pancreatic cancer. […] C, representative tumor sizes in each group of BxPC3 model mice.
Next, we performed experiments using both BxPC3 and PANC-1 tumor cell models in which we administered PBS, BVZ (25 μg), MIT (0.10 mg/kg), or B+M to a group of nude mice.

PANC-1 cells [2] = experiment: Viable cell count in vitro, PANC-1; format: cell-based, human; details: 100 μg/ml BVZ
Method: (§1) FIG. 14. Effects of treatment with BVZ and MIT on the growth of and gene expression in human pancreatic cancer cells in vitro. (A) BxPC3 and (B) PANC-1 cells were incubated for 1 to 5 days in a medium alone or a medium containing 100 μg/ml BVZ. The viable cells were counted every 24 hours. C, PANC-1 cells were incubated for 6 to 48 hours in a medium alone or a medium containing 100 μg/ml BVZ. Total protein lysates were harvested from the cell cultures, and the level of Sp1, EGFR, and VEGF protein expression was determined using Western blot analysis. Equal protein-sample loading was monitored by probing the same membrane filter with an anti-glyceraldehyde-3-phosphate dehydrogenase antibody (GAPDH). D and E, PANC-1 cells were treated with MIT at concentrations ranging from 0.1 to 1.2 μM for 24 and 48 hours. (D) Cytotoxicity was assessed using the MTT assay, and (E) the level of gene expression was determined using Western blot analysis. NS, nonspecific.
Effects of treatment with BVZ and MIT on the growth of and gene expression in human pancreatic cancer cells. To further determine whether treatment with BVZ directly impacts gene expression in pancreatic cancer cells, we incubated PANC-1 and BxPC3 cells in a medium alone or a medium containing 100 μg/ml BVZ for 6 to 48 hours.

[3] = system: Sp1, EGFR, and VEGF protein expression; experiment: Western blot of gene expression in PANC-1 cells in vitro; format: cell-based, human; details: 100 μg/ml BVZ, 6 to 48 hours
Method: as §1, with “D and E, PANC-1 cells were treated with MIT at concentrations ranging from 0.1 to 1.2 μM for 24 and 48 hours.” left out
Western blot analysis. Whole-cell lysates were prepared from human pancreatic cancer cell lines and tissues (23). […] Equal protein-sample loading was monitored by probing the same membrane filter with antibodies against anti-β-actin or glyceraldehyde-3-phosphate dehydrogenase (GAPDH) (23). The probe proteins were detected using the Amersham enhanced chemiluminescence system according to the manufacturer's instructions. […]

Sp1 promoter = Sp1 promoter luciferase reporter in PANC-1 cells; format: cell-based, human; details: 100 μg/ml BVZ or 0.1 μM MIT
Method: FIG. 15. Effects of treatment with BVZ and MIT on Sp1 recruitment into the Sp1 promoter in human pancreatic cancer cells in vitro and in vivo. A, schematic structures of the minimal Sp1 promoters. The nucleotide positions and sequences of Sp1-binding sites and polymerase chain reaction forward and reverse primers flanking those sites for ChIP assay are shown. B, Sp1 and VEGF promoter reporter constructs were transfected into PANC-1 cells in triplicate and incubated for 12 hours. The cells were then incubated for another 24 hours in a medium alone or a medium containing 100 μg/ml BVZ or 0.1 μM MIT. Total protein lysates were harvested from the cell cultures for measurement of Sp1 and VEGF promoter activity using a luciferase assay kit. The relative Sp1 and VEGF promoter activities were assessed, and the activity in treated groups was expressed as the fold change of that in their respective control groups. C and D, chromatin was extracted from (C) PANC-1 cells that were incubated in vitro for 2 days in a medium alone or a medium containing 100 μg/ml BVZ or 0.1 μM MIT and (D) tumors formed by PANC-1 cells in nude mice that received treatment as described in FIG. 2A. […]
Sp1 promoter constructs and analysis of Sp1 promoter activity. […] The reporter luciferase activity was measured 48 hours later using a luciferase assay kit (Promega, Madison, Wis.). […]

[4] = H727 carcinoid subcutaneous xenograft; details: BVZ; abstract does not name the model
Method: (§2) H727 carcinoid tumor volume during treatment course in nude mouse xenograft model for various doses and administration routes of mithramycin.
(§3) H727 and BON-1 cells were injected into the subcutis of nude mice (n=5). When tumors reached around 4 mm in diameter, the animals received different doses of MIT (0.10 [M-10], 0.20 [M-20], and 0.40 [M-40] mg/kg) via intraperitoneal injection twice a week. Tumors were measured once every week, and at each measurement, the mean±standard deviation (SD) tumor volume in the five mice in each group was calculated (A). […] This was one representative experiment of two with similar results.
(§4) H727 and BON-1 cells were injected subcutaneously into nude mice. […] A. Tumors were measured once every week, and at each measurement, the mean±SD tumor volume in the five mice in each group was calculated. B. Mouse body weights were measured. The asterisks indicate the statistical significance (P<0.01) in a comparison between the treated and respective control groups. This was one representative experiment of two with similar results.
(§5) H727 carcinoid cells were injected into the subcutis of groups of mice (n=5). When tumors reached 4 mm in diameter, animals received injections of PBS (controls), MIT (0.10, 0.20, or 0.40 mg/kg (s.c. or i.p.) twice a week. Tumors were measured once every week, and at each measurement, the mean±SD tumor volume in the five mice in each group was calculated.
(§6) Mithramycin-A (MIT, 1 mg/vial crystal powder; lot 055K4011) was purchased from Sigma Chemical Co. (St. Louis, Mo.) and diluted in sterile water. BVZ (25 mg/ml; NDC 50242-060-01) from Genentech, Inc. (South San Francisco, Calif.) was purchased. For animal experiments, MIT (0.1 to 0.4 mg/kg body weight) and BVZ (25 to 100 μg/mouse) were administered by intraperitoneal or subcutaneous injections twice a week or as otherwise stated.
(§7) Female athymic BALB/c nude mice were purchased from The Jackson Laboratory (Bar Harbor, Me.). The mice were housed in laminar flow cabinets under specific pathogen-free conditions and used when they were 8 weeks old.
(§8) H727 and BON-1 tumor cells were injected into the subcutis of mice as described in the Materials and Methods. MIT treatment started when tumor sizes reached around 3-4 mm in diameters. […] Moreover, the residual tumors were harvested and angiogenesis was assessed by CD31 staining.
(§9) Specifically, we injected H727 and BON-1 cells subcutaneously into nude mice. […] We also administered PBS injections to animals as controls.
(§10) H727 and BON-1 cells were injected subcutaneously into nude mice and then administered treatment to them as described in FIG. 20.

H727 cells = experiment: H727 carcinoid subcutaneous xenograft
Method: as §2, §3, §4, §5, §6, §7, §8, §9, §10

Substance: bevacizumab [BVZ]
- antitumor activity at low dose (PANC-1 cells [1]): marginal antitumor activity
- cell growth in vitro (PANC-1 cells [2]): did not affect the growth
- expression of Sp1, VEGF and EGFR [3]: did not affect the expression of Sp1 or its major downstream molecules
- Sp1 promoter activity (Sp1 promoter): did not suppress Sp1 promoter activity
- human neuroendocrine tumor growth [4]: suppressed human neuroendocrine tumor growth in nude mice in a dose-dependent manner
- antitumor activity at low dose (H727 cells; BVZ 25 μg, MIT 0.10 mg/kg, alone or combined, i.p. twice a week): marginal antitumor activity
- body weight (H727 cells; BVZ alone): no discernable effects on body weight
- animal survival (H727 cells; compared with PBS, 160 days): slightly increased survival rate
